Results published in patent publication US9763445B2, “Safened herbicidal compositions comprising a pyridine carboxylic acid herbicide” (Dow AgroSciences, LLC, priority 2014, dated 2017).
Like-named read-outs stand apart in the source and are kept apart here.

How the values were obtained:
spring wheat (TRZAS) = experiment: Postemergence greenhouse trial, % visual injury on spring wheat; type: in vivo, Triticum aestivum; conditions: TRZAS
How it was run: (§1)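 Postemergence greenhouse spray (187 L/ha, 1.5% v/v Agri-dex in water, acetone/DMSO stocks) on plants at second–third true leaf stage, ~23/22 °C, 14 h photoperiod; herbicides in g ae/ha, safener cloquintocet-mexyl in g ai/ha. Visual injury 0–100% versus solvent-blank controls after 20–22 d; Colby's equation gave expected mixture effects.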

common poppy (PAPRH) = experiment: Postemergence greenhouse trial, % visual injury on common poppy; type: in vivo, Papaver rhoeas; conditions: PAPRH; for pest or weed control at 4.38 g/ha / pest or weed control at 8.75 g/ha / pest or weed control at 17.5 g/ha / pest or weed control at 35 g/ha / pest or weed control at 70 g/ha / pest or weed control at 4.375 g/ha: Papaver rhoeas, post-emergence, read-out: % visual injury, Ob; for pest or weed control at 4.38 g/ha: compound 4.380 g/ha
Experimental: (§2) Seeds of the desired test plant species were planted in Sun Gro MetroMix® 306 planting mixture, which typically has a pH of 6.0 to 6.8 and an organic matter content of about 30 percent, in plastic pots with a surface area of 103.2 square centimeters (cm^2). When required to ensure good germination and healthy plants, a fungicide treatment and/or other chemical or physical treatment was applied. The plants were grown for 7-36 days (d) in a greenhouse with an approximate 14-hour (h) photoperiod which was maintained at about 23° C. during the day and 22° C. during the night. Nutrients and water were added on a regular basis and supplemental lighting was provided with overhead metal halide 1000-Watt lamps as necessary. The plants were employed for testing when they reached the second or third true leaf stage.
(§3) Weighed amounts of technical material were dissolved in a volume of 97:3 volume per volume (v/v) acetone/dimethyl sulfoxide (DMSO) to stock solutions. […] The concentrated stock solutions were diluted with an aqueous mixture of 1.5% v/v of Agri-dex crop oil concentrate to provide the appropriate application rates. Compound requirements are based upon a 12 milliliter (mL) application volume at a rate of 187 liters per hectare (L/ha). Stocks solutions of the safeners were prepared following the same procedure. Spray solutions of the safeners and experimental compound mixtures were prepared by adding the stock solutions to the appropriate amount of dilution solution to form a 12 mL spray solution in two-way combinations. Formulated compounds were applied to the plant material with an overhead Mandel track sprayer equipped with 8002E nozzles calibrated to deliver 187 L/ha over an application area of 0.503 square meters (m^2) at a spray height of 18 inches (43 centimeters (cm)) above average plant canopy. Control plants were sprayed in the same manner with the solvent blank. All herbicide application (component a) rates are in g ae/ha and all safener (component b) rates are in g ai/ha.
(§4) The treated plants and control plants were placed in a greenhouse as described above and watered by sub-irrigation to prevent wash-off of the test compounds. After 20-22 d, the condition of the test plants as compared with that of the control plants was determined visually and scored on a scale of 0 to 100 percent where 0 corresponds to no injury and 100 corresponds to complete kill. […] Colby's equation was used to determine the herbicidal effects expected from the mixtures. […]

winter rape (BRSNW) = experiment: Postemergence greenhouse trial, % visual injury on winter rape; type: in vivo, Brassica napus; conditions: Brassica napus, post-emergence, BRSNW, read-out: % visual injury, Ob; for plant injury at 4.38 g/ha: compound 4.380 g/ha
How it was run: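 Plants at second or third true leaf stage, greenhouse-grown (14 h photoperiod, ~23/22° C.), sprayed postemergence with compounds alone or with safener cloquintocet-mexyl in 1.5% v/v Agri-dex crop oil at 187 L/ha. Visual injury scored 0–100% versus solvent-blank controls after 20-22 d; expected mixture effects by Colby's equation.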

pigweed (AMARE) = experiment: Postemergence greenhouse trial, % visual injury on pigweed; type: in vivo, Amaranthus retroflexus; conditions: Amaranthus retroflexus, post-emergence, AMARE, read-out: % visual injury, Ob
How it was run: as §1

[1] = test system: bird's-eye speedwell (VERPE); experiment: Postemergence greenhouse trial, % visual injury on bird's-eye speedwell; type: in vivo, Veronica persica; conditions: VERPE; for % visual injury, Ob: CQC-m 0
Experimental: as §2, §3, §4

[2] = compound 8 4.380 + CQC-m 0 g/ha

SMILES | % visual injury, Ob (spring wheat (TRZAS); compound 4.380 g/ha, CQC-m 0) [%] | % visual injury, Ob (spring wheat (TRZAS); compound 8.75 g/ha, CQC-m 0) [%] | % visual injury, Ob (spring wheat (TRZAS); compound 17.5 g/ha, CQC-m 0) [%] | % visual injury, Ob (spring wheat (TRZAS); compound 35 g/ha, CQC-m 0) [%] | % visual injury, Ob (spring wheat (TRZAS); compound 70 g/ha, CQC-m 0) [%] | pest or weed control at 4.38 g/ha (common poppy (PAPRH); CQC-m 0) [%] | pest or weed control at 8.75 g/ha (common poppy (PAPRH); compound 8.75 g/ha, CQC-m 0) [%] | pest or weed control at 17.5 g/ha (common poppy (PAPRH); compound 17.5 g/ha, CQC-m 0) [%] | pest or weed control at 35 g/ha (common poppy (PAPRH); compound 35 g/ha, CQC-m 0) [%] | pest or weed control at 70 g/ha (common poppy (PAPRH); compound 70 g/ha, CQC-m 0) [%] | plant injury at 4.38 g/ha (winter rape (BRSNW); CQC-m 0) [%] | plant injury at 8.75 g/ha (winter rape (BRSNW); compound 8.75 g/ha, CQC-m 0) [%] | plant injury at 17.5 g/ha (winter rape (BRSNW); compound 17.5 g/ha, CQC-m 0) [%] | plant injury at 35 g/ha (winter rape (BRSNW); compound 35 g/ha, CQC-m 0) [%] | plant injury at 70 g/ha (winter rape (BRSNW); compound 70 g/ha, CQC-m 0) [%] | % visual injury, Ob (spring wheat (TRZAS); 4.375 g/ha, applied alone) [%] | % visual injury, Ob (spring wheat (TRZAS); 8.75 g/ha, applied alone) [%] | % visual injury, Ob (spring wheat (TRZAS); 17.5 g/ha, applied alone) [%] | % visual injury, Ob (spring wheat (TRZAS); 35 g/ha, applied alone) [%] | % visual injury, Ob (spring wheat (TRZAS); 70 g/ha, applied alone) [%] | other results
CCCCOC(=O)c1nc(-c2ccc3cc[nH]c3c2F)c(F)c(N)c1Cl [compound 9] | 10 | 25 | 30 | 50 | 60 | 90 | 87 | 100 | 93 | 100 | 60 | 60 | 90 | 98 | 100 | – | – | – | – | – | pest or weed control at 4.38 g/ha (pigweed (AMARE); compound 4.380 g/ha, CQC-m 0): 10%; pest or weed control at 8.75 g/ha (pigweed (AMARE); compound 8.75 g/ha, CQC-m 0): 20%; pest or weed control at 17.5 g/ha (pigweed (AMARE); compound 17.5 g/ha, CQC-m 0): 50%; pest or weed control at 70 g/ha (pigweed (AMARE); compound 70 g/ha, CQC-m 0): 100%
COC(=O)c1nc(-c2ccc3cc[nH]c3c2F)c(F)c(N)c1OC [compound 12] | 15 | 27 | 42 | 53 | 70 | 90 | 93 | 95 | 100 | 100 | – | – | – | – | – | – | – | – | – | – | –
CO/C=N/c1c(F)c(-c2ccc3cc[nH]c3c2F)nc(C(=O)OC)c1Cl [compound 10] | 10 | 25 | 40 | 60 | 70 | – | – | – | – | – | 85 | 95 | 100 | 100 | 100 | – | – | – | – | – | % visual injury, Ob ([1]; compound 4.380 g/ha): 70%; % visual injury, Ob ([1]; compound 8.75 g/ha): 85%; % visual injury, Ob ([1]; compound 17.5 g/ha): 90%; % visual injury, Ob ([1]; compound 35 g/ha): 100%; % visual injury, Ob ([1]; compound 70 g/ha): 100%
Nc1c(F)c(-c2ccc3scnc3c2)nc(C(=O)O)c1Cl [compound 17] | – | – | – | – | – | – | – | – | – | – | – | – | – | – | – | 0 | 15 | 30 | 40 | 45 | pest or weed control at 4.375 g/ha (common poppy (PAPRH); applied alone): 80%; pest or weed control at 8.75 g/ha (common poppy (PAPRH); 8.75 g/ha, applied alone): 85%; pest or weed control at 17.5 g/ha (common poppy (PAPRH); 17.5 g/ha, applied alone): 85%; pest or weed control at 35 g/ha (common poppy (PAPRH); 35 g/ha, applied alone): 95%; pest or weed control at 70 g/ha (common poppy (PAPRH); 70 g/ha, applied alone): 100%; plant injury at 4.375 g/ha (winter rape (BRSNW); 4.375 g/ha, applied alone): 60%; plant injury at 8.75 g/ha (winter rape (BRSNW); 8.75 g/ha, applied alone): 90%; plant injury at 17.5 g/ha (winter rape (BRSNW); 17.5 g/ha, applied alone): 95%; plant injury at 35 g/ha (winter rape (BRSNW); 35 g/ha, applied alone): 95%; plant injury at 70 g/ha (winter rape (BRSNW); 70 g/ha, applied alone): 97%; pest or weed control at 17.5 g/ha (pigweed (AMARE); 17.5 g/ha, applied alone): 100%; pest or weed control at 35 g/ha (pigweed (AMARE); 35 g/ha, applied alone): 100%
Nc1c(F)c(-c2ccc3ccoc3c2)nc(C(=O)O)c1Cl [compound 20] | – | – | – | – | – | – | – | – | – | – | – | – | – | – | – | 0 | 0 | 0 | 10 | 20 | pest or weed control at 4.375 g/ha (common poppy (PAPRH); applied alone): 85%; pest or weed control at 8.75 g/ha (common poppy (PAPRH); 8.75 g/ha, applied alone): 85%; pest or weed control at 17.5 g/ha (common poppy (PAPRH); 17.5 g/ha, applied alone): 95%; pest or weed control at 35 g/ha (common poppy (PAPRH); 35 g/ha, applied alone): 100%; pest or weed control at 70 g/ha (common poppy (PAPRH); 70 g/ha, applied alone): 95%
COC(=O)c1nc(-c2ccc3cc[nH]c3c2F)c(F)c(N)c1Cl [compound 8] | – | – | – | – | – | – | – | – | – | – | – | – | – | – | – | – | – | – | – | – | % visual injury, observed (Ob) [1, 2]: 83%; % visual injury, observed (Ob) ([1]; compound 8 8.75 + CQC-m 0 g/ha): 92%; % visual injury, observed (Ob) ([1]; compound 8 17.5 + CQC-m 0 g/ha): 96%; % visual injury, observed (Ob) ([1]; compound 8 35 + CQC-m 0 g/ha): 98%; % visual injury, observed (Ob) ([1]; compound 8 70 + CQC-m 0 g/ha): 100%; % visual injury, observed (Ob) (spring wheat (TRZAS); [2]): 7%; % visual injury, observed (Ob) (spring wheat (TRZAS); compound 8 8.75 + CQC-m 0 g/ha): 11%; % visual injury, observed (Ob) (spring wheat (TRZAS); compound 8 17.5 + CQC-m 0 g/ha): 35%; % visual injury, observed (Ob) (spring wheat (TRZAS); compound 8 35 + CQC-m 0 g/ha): 48%; % visual injury, observed (Ob) (spring wheat (TRZAS); compound 8 70 + CQC-m 0 g/ha): 60%; % visual injury, observed (Ob) (common poppy (PAPRH); [2]): 97%; % visual injury, observed (Ob) (common poppy (PAPRH); compound 8 8.75 + CQC-m 0 g/ha): 99%; % visual injury, observed (Ob) (common poppy (PAPRH); compound 8 17.5 + CQC-m 0 g/ha): 100%; % visual injury, observed (Ob) (common poppy (PAPRH); compound 8 35 + CQC-m 0 g/ha): 100%; % visual injury, observed (Ob) (common poppy (PAPRH); compound 8 70 + CQC-m 0 g/ha): 100%
